# Molecular target: T1, mGlyT-1b (Mus musculus, UniProt P28571)
# T1 construct: host or cells: Flp-in-CHO cells (vendor and catalogue number are those of the host cell line)
# T1 sequence (P28571 1-651 isoform P28571-2): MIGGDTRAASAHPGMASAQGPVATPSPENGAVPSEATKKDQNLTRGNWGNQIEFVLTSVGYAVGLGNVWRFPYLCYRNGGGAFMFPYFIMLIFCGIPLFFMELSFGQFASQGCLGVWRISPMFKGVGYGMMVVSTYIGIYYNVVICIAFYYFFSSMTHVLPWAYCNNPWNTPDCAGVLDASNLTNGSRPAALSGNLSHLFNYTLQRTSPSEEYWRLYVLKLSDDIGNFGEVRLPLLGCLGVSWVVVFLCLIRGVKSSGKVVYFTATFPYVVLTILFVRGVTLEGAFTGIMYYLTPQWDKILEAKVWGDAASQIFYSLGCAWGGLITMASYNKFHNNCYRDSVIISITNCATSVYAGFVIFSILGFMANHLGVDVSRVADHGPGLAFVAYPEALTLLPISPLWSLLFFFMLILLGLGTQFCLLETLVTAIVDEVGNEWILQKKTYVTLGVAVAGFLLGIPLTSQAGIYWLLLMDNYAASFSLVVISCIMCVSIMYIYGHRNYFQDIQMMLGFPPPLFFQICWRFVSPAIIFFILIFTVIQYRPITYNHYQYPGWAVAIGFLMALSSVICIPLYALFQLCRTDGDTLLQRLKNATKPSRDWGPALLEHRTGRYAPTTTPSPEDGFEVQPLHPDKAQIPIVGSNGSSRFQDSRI
# Assay: Glycine Uptake Inhibition Assay (mGlyT-1b)
# Format: cell-based
# Conditions: inhibition of [3H]-glycine uptake in Flp-in-CHO cells transfected with mGlyT-1b cDNA; 20 min preincubation at 22° C.; read-out: IC50 (μM) at GlyT-1
# Procedure: DMEM complete medium: Nutrient mixture F-12 (Gibco Life-technologies), fetal bovine serum (FBS) 5%, (Gibco life technologies), Penicillin/Streptomycin 1% (Gibco life technologies), Hygromycin 0.6 mg/ml (Gibco life technologies), Glutamine 1 mM Gibco life technologies)
# Uptake buffer (UB): 150 mM NaCl, 10 mM Hepes-Tris, pH 7.4, 1 mM CaCl2, 2.5 mM KCl, 2.5 mM MgSO4, 10 mM (+) D-glucose.
# Flp-in™-CHO (Invitrogen Cat n° R758-07) cells stably transfected with mGlyT1b cDNA.
# Glycine Uptake Inhibition Assay (mGlyT-1b)
# On day 1 mammalian cells, (Flp-in™-CHO), transfected with mGlyT-1b cDNA, were plated at the density of 40,000 cells/well in complete F-12 medium, without hygromycin in 96-well culture plates. On day 2, the medium was aspirated and the cells were washed twice with uptake buffer (UB). The cells were then incubated for 20 min at 22° C. with either (i) no potential competitor, (ii) 10 mM non-radioactive glycine, (iii) a concentration of a potential inhibitor. A range of concentrations of the potential inhibitor was used to generate data for calculating the concentration of inhibitor resulting in 50% of the effect (e.g. IC50, the concentration of the competitor inhibiting glycine uptake of 50%). A solution was then immediately added containing [^3H]-glycine 60 nM (11–16 Ci/mmol) and 25 μM non-radioactive glycine. The plates were incubated with gentle shaking and the reaction was stopped by aspiration of the mixture and washing (three times) with ice-cold UB. The cells were lysed with scintillation liquid, shaken 3 hours and the radioactivity in the cells was counted using a scintillation counter.
row,IC50,SMILES
1,0.056 µM,"CC(Oc1ccc(S(C)(=O)=O)cc1C(=O)N1CCN(c2ncc(CC(F)(F)F)s2)CC1)C(F)(F)F (stereo not drawn) [Example 69, [5-Methanesulfonyl-2-(2,2,2-trifluoro-1-methyl-ethoxy)-phenyl]-{4-[5-(2,2,2-trifluoro-ethyl)-thiazol-2-yl]-piperazin-1-yl}-methanone]"
2,0.044 µM,"Cc1nc(N2CCN(C(=O)c3cc(S(C)(=O)=O)ccc3O[C@H](C)C(F)(F)F)CC2)sc1C(F)(F)F [Example 81, [5-Methanesulfonyl-2-((R)-2,2,2-trifluoro-1-methyl-ethoxy)-phenyl]-[4-(4-methyl-5-trifluoromethyl-thiazol-2-yl)-piperazin-1-yl]-methanone]"
3,0.07 µM,"CCCCS(=O)(=O)c1cnc(N2CCN(C(=O)c3cc(S(C)(=O)=O)ccc3OC(C)C(F)(F)F)CC2)s1 (stereo not drawn) [Example 39, {4-[5-(Butane-1-sulfonyl)-thiazol-2-yl]-piperazin-1-yl}-[5-methanesulfonyl-2-(2,2,2-trifluoro-1-methyl-ethoxy)-phenyl]-methanone]"
4,0.055 µM,"CNS(=O)(=O)c1ccc(OC2CCCC2)c(C(=O)N2CCN(c3nc(-c4ccccc4)ns3)CC2)c1 [Example 100, 4-Cyclopentyloxy-N-methyl-3-[4-(3-phenyl-[1,2,4]thiadiazol-5-yl)-piperazine-1-carbonyl]-benzenesulfonamide]"
5,0.067 µM,"Cc1nc(N2CCN(C(=O)c3cc(S(C)(=O)=O)ccc3OC(C)C)CC2)sc1C(F)(F)F [Example 79, (2-Isopropoxy-5-methanesulfonyl-phenyl)-[4-(4-methyl-5-trifluoromethyl-thiazol-2-yl)-piperazin-1-yl]-methanone]"
6,0.018 µM,"CCCCS(=O)(=O)c1cnc(N2CCN(C(=O)c3cc(S(C)(=O)=O)ccc3OC3CCCC3)CC2)s1 [Example 41, {4-[5-(Butane-1-sulfonyl)-thiazol-2-yl]-piperazin-1-yl}-(2-cyclopentyloxy-5-methanesulfonyl-phenyl)-methanone]"
